{"source": "patent US20090238852A1", "about": "“METHODS FOR CONTROLLING INTRACELLULAR CALCIUM LEVELS ASSOCIATED WITH AN ISCHEMIC EVENT” (University of Utah Research Foundation, priority 2008, published 2009)", "key": {"blood coagulation (aPTT)": {"test_system": "blood coagulation (aPTT)", "experiment": "Phase I bolus plus 72 hour infusion study: aPTT", "format": "in vivo, human", "details": "from relationship of aPTT change and ODSH level, FIG. 23", "procedure": "(§1) A study was performed in eight (8) healthy adult male and female subjects to assess the effects of a bolus dose and 72 hour infusion of 2-O, 3-O desulfated heparin. The study was a Phase I study with a three day treatment period. Doses were adjusted to maintain an aPTT level of 40-45 seconds. Subjects were between the ages of 18 and 60, were not pregnant, and were normal in body weight. They all had normal coagulation function and hemoglobin values at baseline.\nSubjects received an initial bolus of 8 mg/kg of ODSH over 15 minutes, followed by 72 hours continuous infusion beginning at 0.58 mg/kg/hr. For each subject ODSH as a 50 mg/ml formulation was diluted with normal saline and administered as a bolus infused over 15 minutes containing the calculated amount of ODSH the subject was to receive, followed by infusion of ODSH diluted in saline. The infusion dose was adjusted to maintain an aPTT of 40-45 seconds. […] Using values for aPTT and ODSH levels, pharmacokinetic parameters were calculated by noncompartmental methods using a commercial software program (PhAST 2.3-001). The following pharmacokinetic parameters were calculated as above: Cmax; Kel; tmax; AUC O-t; AUCinf, t1/2; CL; and Vdss."}, "[1]": {"details": "human, in vivo", "procedure": "as §1\n(§2) Subjects received an initial bolus of 8 mg/kg of ODSH over 15 minutes, followed by 72 hours continuous infusion beginning at 0.58 mg/kg/hr. For each subject ODSH as a 50 mg/ml formulation was diluted with normal saline and administered as a bolus infused over 15 minutes containing the calculated amount of ODSH the subject was to receive, followed by infusion of ODSH diluted in saline. The infusion dose was adjusted to maintain an aPTT of 40-45 seconds. Immediately before infusion and after the start of each infusion, blood was drawn at periodic times (over a total 72 hour period) to monitor the effect of infusion on the following laboratory studies: activated partial thromboplastin time (aPTT), prothrombin time (PT), activated clotting time (ACT), and ODSH plasma level. Serum chemistries and a complete blood count were checked immediately before infusion and again periodically for up to 240 hours later. Using values for aPTT and ODSH levels, pharmacokinetic parameters were calculated by noncompartmental methods using a commercial software program (PhAST 2.3-001). The following pharmacokinetic parameters were calculated as above: Cmax; Kel; tmax; AUC O-t; AUCinf, t1/2; CL; and Vdss."}, "[2]": {"test_system": "blood coagulation (aPTT, ACT)", "experiment": "Phase I bolus plus 12 hour infusion study: coagulation tests (aPTT, ACT)", "format": "in vivo, human", "details": "all dosing regimens; FIG. 20", "procedure": "A study was performed in twenty-four (24) healthy adult subjects to assess the effects of a bolus dose and 12 hour infusion of 2-O, 3-O desulfated heparin. The study was a Phase I, randomized, double-blind, dose escalation study with single-day treatment periods. Subjects were males between the ages of 18 and 45, and were normal in body weight. They all had normal coagulation function and hemoglobin values at baseline. […] Eighteen (18) subjects were randomized to receive ODSH and six (6) subjects were randomized to receive placebo. Subjects received either ODSH or placebo as described below in Table 13.\nFor each subject, ODSH as a 50 mg/ml formulation was diluted with normal saline and administered as a bolus infused over 15 minutes containing the calculated amount of ODSH the subject was to receive, followed by a constant infusion for 12 hours of ODSH diluted in saline. Placebo consisted of 50 mL of normal saline infused over 15 minutes, followed by normal saline infused for 12 hours. Immediately before infusion and after the start of each infusion, blood was drawn at periodic times (over a total 24 hour period) to monitor the effect of infusion on the following laboratory studies: activated partial thromboplastin time (aPTT); prothrombin time (PT); activated clotting time (ACT); and ODSH plasma level."}, "[3]": {"test_system": "pigs, 75 min LAD balloon occlusion and 3 h reperfusion", "experiment": "Porcine ischemia/reperfusion model: global ejection fraction by contrast ventriculography", "format": "in vivo, pig", "details": "for Global Ejection Fraction, Baseline: before ischemia and dosing; for Global Ejection Fraction, 180 Minutes after End of Ischemia: control 34 ± 3", "from_the_text": "Arterial access was achieved via bilateral femoral artery cut-downs for the insertion of 8F sheaths. Central venous and carotid access was achieved via a neck incision to expose the external jugular vein and common carotid artery. Animals were then anticoagulated with 50 U/kg of unfractionated heparin to maintain an activated clotting time (ACT) between 250-350 seconds, prior to ischemia. A 7-8 Fr pigtail catheter was placed in the left ventricular cavity to measure pressure and for injection of […] microspheres. Angiography was performed to define coronary anatomy and measure the diameter of the left anterior descending coronary artery (LAD) at the point of intended balloon occlusion. A coronary sinus catheter was placed via the external jugular vein under fluoroscopic guidance for coronary venous sampling. Baseline cardiodynamic and hemodynamic data were measured using a solid state transducer-tipped catheter in the left ventricle (Millar Instruments, Houston, Tex.) to measure left ventricular pressure, and a fluid-filled transducer connected to the side port of the femoral artery sheath to measure peripheral arterial pressure. Approximately 3-4 million neutron-activated microspheres (BioPhysics Assay Laboratory, Inc, Worcester, Ma) (15 μm) were delivered through a pig-tail catheter into the left ventricle over a 30 second period, to quantify regional myocardial blood flow (RMBF). Simultaneously with injection, a reference sample was withdrawn at a rate of 7 cc/min from the femoral artery sheath, for 90 seconds during and after injection of microspheres. A contrast ventriculogram (60° right anterior oblique) was obtained to assess global and regional myocardial function at baseline. An angioplasty balloon catheter sized to exceed ambient diameter by 1 mm (range chosen was 3.0-4.0 mm) was then inserted into the proximal LAD, after the first diagonal branch. […] In addition, 2% lidocaine (4-8 ml total) was administered during ischemia, as needed, to attenuate ventricular arrhythmias. Balloon occlusion time was 75 minutes with coronary occlusion confirmed by contrast angiography, ST segment changes on electrocardiography, and quantitatively confirmed by microspheres delivered at the end of ischemia, as described above. Episodes of ventricular fibrillation were immediately treated with electrical cardioversion delivered at 200 Joules. During the ischemic period, animals were randomly assigned to receive either saline vehicle or 2-O, 3-O desulfated heparin (ODSH) at a dose of 5 mg/kg, 15 mg/kg, or 45 mg/kg as an IV bolus at 2 minutes prior to deflation of the balloon (pharmacological postconditioning), and repeated at 90 minutes of reperfusion. Following deflation of the angioplasty balloon, animals underwent 3 hours of further reperfusion and observation. Microspheres were again injected to measure myocardial blood flow at 15 minutes of reperfusion and again at 180 minutes of reperfusion. At the end of 180 minutes of reperfusion, animals were euthanized with an IV injection of pentobarbital sodium (100 mg/kg) and the heart was excised to quantify the area at risk, infarct size, regional myocardial blood flow, and myeloperoxidase activity. Hemodynamic data (left ventricular and arterial blood pressure) and derived variables were recorded continuously using 10× and Datanalyst software (EMKA Technologies, Falls Church, Va.).\nLeft ventricular contrast angiography was performed at baseline, ischemia, and 180 minutes after relief of ischemia. Contrast (Hypaque, approximately 50 mL) was rapidly injected via a pigtail catheter using a power injector. Left ventricular ejection fraction (LVEF) and regional function of the antero-lateral wall was calculated using the area-length method, which outlined the ventricle at the end of systole and diastole. LVEF and regional function were analyzed independently by 2 blinded observers."}, "[4]": {"test_system": "blood coagulation (aPTT, PT, ACT)", "experiment": "Phase I single IV bolus study: coagulation tests (aPTT, PT, ACT)", "format": "in vivo, human", "procedure": "A study was performed in 38 volunteer human subjects to assess the safety of escalating bolus doses of 2-O, 3-O desulfated heparin (ODSH). The study was a Phase I, randomized, double-blind, dose-escalation study with a single-day treatment period. Subjects were between the ages of 18 and 45, were not pregnant, and were normal in body weight. They all had normal coagulation function and hemoglobin values at baseline.\nTwo subjects also received an injection of fully anticoagulated unfractionated heparin for comparison. ODSH dose groups were run in a series, and safety and tolerance data were evaluated prior to the start of the next dose level (4, 8 12, 16 and 20 mg/kg bolus intravenous doses). Twenty eight (28) subjects randomly received ODSH and 9 subjects were randomized to receive placebo, with an additional two subjects receiving commercially available unfractionated heparin.\nFor each bolus dose, ODSH as a 50 mg/mL formulation was diluted with normal saline and a total volume of 50 ml was infused over 15 minutes containing the calculated amount of ODSH the subject was to receive. Placebo consisted of 50 mL of normal saline infused over 15 minutes. For subjects receiving heparin, 5,000 units (approximately 0.5 mg/kg) of heparin was diluted into 50 ml of normal saline and infused over 15 minutes.\nImmediately before infusion and beginning 7 minutes after the start of each infusion, blood was drawn at periodic times for 24 hours to monitor the effect of infusion on the following laboratory studies: activated partial thromboplastin time (aPTT); prothrombin time (PT); activated clotting time (ACT); and ODSH plasma level. Serum chemistries and a complete blood count were checked immediately before infusion and at eight (8) and twenty-four (24) hours later. Using values for aPTT and ODSH levels, pharmacokinetic parameters were calculated by noncompartmental methods using a commercial software program (PhAST 2.3-001). […]"}, "[5]": {"details": "in vivo", "procedure": "as §1, §2"}}, "data": [{"substance": "2-O, 3-O desulfated heparin [ODSH]", "values": [{"measurement": "aPTT above baseline at ODSH blood concentrations of 100 μg/mL", "setting": "blood coagulation (aPTT)", "result": "approximately 50 seconds"}, {"measurement": "aPTT absolute value at ODSH blood concentrations of 100 μg/mL", "setting": "blood coagulation (aPTT)", "result": "about 75 seconds"}, {"measurement": "CL", "setting": "[1]", "result": 0.17, "unit": "mL/min/kg"}, {"measurement": "Vdss", "setting": "[1]", "result": 0.0489, "unit": "L/kg"}, {"measurement": "t1/2", "setting": "[1]", "result": 3.3, "unit": "h"}, {"measurement": "tmax", "setting": "[1]", "result": 0.5, "unit": "h"}, {"measurement": "AUC, range across subjects", "setting": "[1]; 8 mg/kg", "result": "3,528-4,694 μg hr/mL"}, {"measurement": "CL, range across subjects", "setting": "[1]; 8 mg/kg", "result": "0.147 to 0.197", "unit": "mL/min/kg"}, {"measurement": "Cmax, range across subjects", "setting": "[1]; 8 mg/kg", "result": "131 to 192", "unit": "µg/mL"}, {"measurement": "Vdss, range across subjects", "setting": "[1]; 8 mg/kg", "result": "0.0237 to 0.0662", "unit": "L/kg"}, {"measurement": "t1/2, range across subjects", "setting": "[1]; 8 mg/kg", "result": "1.9 to 4.4", "unit": "h"}, {"measurement": "ACT increases", "setting": "[2]", "result": "ACT increases providing adequate therapeutic anticoagulation necessary for the cardiac catheterization laboratory were observed in all dosing regimens"}, {"measurement": "Global Ejection Fraction, Ischemia", "setting": "[3]; ODS 15 mg/kg (second line, r8)", "result": "23 ± 3", "unit": "%"}, {"measurement": "Global Ejection Fraction, Baseline", "setting": "[3]; ODS 15 mg/kg (second line, r8)", "result": "57 ± 4", "unit": "%"}, {"measurement": "Global Ejection Fraction, 180 Minutes after End of Ischemia", "setting": "[3]; ODS 15 mg/kg (second line, r8)", "result": "42 ± 4", "unit": "%"}, {"measurement": "Global Ejection Fraction, Ischemia", "setting": "[3]; ODS 45 mg/kg", "result": "30 ± 3", "unit": "%"}, {"measurement": "Global Ejection Fraction, Baseline", "setting": "[3]; ODS 45 mg/kg", "result": "60 ± 2", "unit": "%"}, {"measurement": "Global Ejection Fraction, 180 Minutes after End of Ischemia", "setting": "[3]; ODS 45 mg/kg", "result": "38 ± 6", "unit": "%"}, {"measurement": "ejection fraction at 3 hours after the end of ischemia versus control", "setting": "[3]; ODS-treated animals, all doses", "result": "tended to be higher"}, {"measurement": "Global Ejection Fraction, Baseline", "setting": "[3]; line printed ODS 15 mg/kg (first of two, r7), control 52 ± 2", "result": "61 ± 2", "unit": "%"}, {"measurement": "Global Ejection Fraction, Ischemia", "setting": "[3]; line printed ODS 15 mg/kg (first of two, r7), control 25 ± 2", "result": "30 ± 3", "unit": "%"}, {"measurement": "Global Ejection Fraction, 180 Minutes after End of Ischemia", "setting": "[3]; line printed ODS 15 mg/kg (first of two, r7)", "result": "42 ± 5", "unit": "%"}, {"measurement": "PT", "setting": "[4]; IV bolus 4 to 20 mg/kg", "result": "increased in a dose-dependent manner"}, {"measurement": "change from baseline in aPTT", "setting": "[4]; IV bolus 4 to 20 mg/kg, FIG. 16", "result": "rapid increase in aPTT over the infusion period in a dose-dependent fashion"}, {"measurement": "mean ACT value at 15 minutes", "setting": "[4]; ODSH 20 mg/kg IV bolus", "result": 207, "unit": "s"}, {"measurement": "change from baseline in ACT", "setting": "[4]; bolus doses of 12-20 mg/kg, FIG. 17", "result": "Therapeutic increases in the ACT"}, {"measurement": "Platelet count, Day After Infusion", "setting": "[5]", "result": "261 ± 37", "unit": "thousands/μL blood"}, {"measurement": "Platelet count, Day Before Infusion", "setting": "[5]", "result": "261 ± 40", "unit": "thousands/μL blood"}, {"measurement": "Platelet count, Infusion Day 2", "setting": "[5]", "result": "258 ± 39", "unit": "thousands/μL blood"}, {"measurement": "Platelet count, Infusion Day 3", "setting": "[5]", "result": "272 ± 42", "unit": "thousands/μL blood"}, {"measurement": "ecchymosis", "setting": "[5]", "result": "Mild ecchymosis was reported in one subject"}, {"measurement": "transient elevations in serum ALT and AST", "setting": "[5]", "result": "observed in seven subjects"}]}]}
